Source: US9682980B2, “Positive allosteric modulators of mGluR2” (BRISTOL-MYERS SQUIBB COMPANY, priority 2012, dated 2017)

Target: human mGluR2 (Homo sapiens (Human), UniProt Q14416)
Assay: MGluR2 cAMP assay
Assay type: cell-based
Conditions: HEK293 cells clonally expressing human mGluR2, 1 μM forskolin, 1 μM LY-341495
Protocol: Clonally expressed human mGluR2 in HEK293 background was glutamate starved overnight in media without glutamine (GIBCO MEM 12360), containing 10% FBS, 1% penicillin streptomycin.
On the day of the assay, media was removed, cells washed with PBS, cells harvested and pelleted by centrifugation. Cell pellets were resuspended in stimulation buffer without forskolin and counted. A solution of 1.25×10^6 cells/ml was prepared and dispensed to plates using a Combi liquid handler (Thermo). A standard curve was created using a top concentration of cAMP of 1 μM in the stimulation buffer, 1:3 dilutions over 14 points in the absence of cells. Plates were read by time-resolved fluorescence at […] and a ratio was calculated via in house software, (665 nM/618 nM)*10^4. In house software converted the fluorescence value ratios to units of cAMP concentration, which is then used to calculate % inhibition for each test compound.
Compounds were added to white, standard volume 384 non-binding surface plates (Corning 3574). Cells were resuspended in stimulation buffer consisting of Hanks Balanced Salt Solution (14175-095) pH 7.0, 20 mM HEPES, 2.0 mM CaCl2, 5.0 mM MgCl2, and 1 mM IBMX (Sigma 15879), 1 μM forskolin, and 1 μM LY-341495, for 30 minutes. Buffer without forskolin was used as a negative control. Solutions of D2 and cryptate detection reagents from the CISBIO dynamic cAMP kit (62AM4PEJ) were diluted 1:40 in lysis buffer. Lysis buffer consisted of 50 mM Phosphate Buffer pH 7.0, 800 mM Potassium Fluoride, 0.2% BSA, and 1.0% Triton. Assay reaction was terminated by addition of detection reagents in lysis buffer. One hour later, plates were read on a PE Viewlux. Data was extracted, and concentration response curves generated by fitting the data to a standard 4 parameter logistic equation from which EC50 values were determined See table 1: A: <10 nM; B: 10-100 nM; C: 100-1000 nM; D: 1000-10000 nM.

Chain of human mGluR2 (Q14416 19-872): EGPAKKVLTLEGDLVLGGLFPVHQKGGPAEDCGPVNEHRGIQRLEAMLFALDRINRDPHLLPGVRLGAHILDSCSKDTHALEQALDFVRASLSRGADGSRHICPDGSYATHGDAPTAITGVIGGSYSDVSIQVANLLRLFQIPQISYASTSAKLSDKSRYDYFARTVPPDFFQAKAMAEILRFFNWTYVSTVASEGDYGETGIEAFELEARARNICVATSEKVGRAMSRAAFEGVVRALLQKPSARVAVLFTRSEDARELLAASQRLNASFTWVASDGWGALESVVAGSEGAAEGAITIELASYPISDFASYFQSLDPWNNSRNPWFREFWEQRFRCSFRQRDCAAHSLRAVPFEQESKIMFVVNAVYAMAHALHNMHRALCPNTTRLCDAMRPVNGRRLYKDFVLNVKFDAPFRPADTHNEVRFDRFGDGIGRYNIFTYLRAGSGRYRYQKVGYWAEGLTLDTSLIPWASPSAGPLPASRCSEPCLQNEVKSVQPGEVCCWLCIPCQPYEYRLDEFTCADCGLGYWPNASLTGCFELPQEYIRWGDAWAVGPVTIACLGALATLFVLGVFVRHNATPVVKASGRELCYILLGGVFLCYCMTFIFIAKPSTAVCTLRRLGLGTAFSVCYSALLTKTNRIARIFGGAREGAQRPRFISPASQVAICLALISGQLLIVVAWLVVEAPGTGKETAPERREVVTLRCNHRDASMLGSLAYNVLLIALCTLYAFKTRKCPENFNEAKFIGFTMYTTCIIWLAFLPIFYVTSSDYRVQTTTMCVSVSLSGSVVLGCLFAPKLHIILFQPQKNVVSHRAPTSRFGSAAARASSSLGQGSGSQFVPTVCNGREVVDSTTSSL

SMILES	EC50
COC(=O)c1ccccc1C1CCN(c2cnn3c(CC(F)(F)F)nnc3c2Cl)CC1 [Example 32, Methyl 2-(1-(8-chloro-3-(2,2,2-trifluoroethyl)-[1,2,4]triazolo[4,3-b]pyridazin-7-yl)piperidin-4-yl)benzoate]	15 nM
Clc1c(NCC2Cc3ccccc3C2)cnn2c(CC3CC3)nnc12 [Example 33, 8-Chloro-3-(cyclopropylmethyl)-N-((2,3-dihydro-1H-inden-2-yl)methyl)-[1,2,4]triazolo[4,3-b]pyridazin-7-amine]	21 nM
COc1cccc(F)c1C1CCN(c2cc3nnc(CC4CC4)n3cn2)CC1 [Example 34, 3-(Cyclopropylmethyl)-7-(4-(2-fluoro-6-methoxyphenyl)piperidin-1-yl)-[1,2,4]triazolo[4,3-c]pyrimidine]	649 nM
COc1ccc(OC)c(C2CCN(c3cnn4c(CC5CC5)nnc4c3Cl)CC2)c1 [Example 35, 8-Chloro-3-(cyclopropylmethyl)-7-(4-(2,5-dimethoxyphenyl)piperidin-1-yl)-[1,2,4]triazolo[4,3-b]pyridazine]	6 nM
COc1ccc(OC)c(C2CCN(c3cnn4c(CC(F)(F)F)nnc4c3Cl)CC2)c1 [Example 36, 8-Chloro-7-(4-(2,5-dimethoxyphenyl)piperidin-1-yl)-3-(2,2,2-trifluoroethyl)-[1,2,4]triazolo[4,3-b]pyridazine]	7 nM
COc1ccc(C2CCN(c3cnn4c(CC5CC5)nnc4c3Cl)CC2)c(OC)c1 [Example 37, 8-Chloro-3-(cyclopropylmethyl)-7-(4-(2,4-dimethoxyphenyl)piperidin-1-yl)-[1,2,4]triazolo[4,3-b]pyridazine]	9 nM
COc1ccc(C2CCN(c3cnn4c(CC(F)(F)F)nnc4c3Cl)CC2)c(OC)c1 [Example 38, 8-Chloro-7-(4-(2,4-dimethoxyphenyl)piperidin-1-yl)-3-(2,2,2-trifluoroethyl)-[1,2,4]triazolo[4,3-b]pyridazine]	5 nM
COc1cccc(F)c1C1CC1CNc1cnn2c(CC3CC3)nnc2c1Cl (centres unmarked) [Example 39, 8-Chloro-3-(cyclopropylmethyl)-N-((2-(2-fluoro-6-methoxyphenyl)cyclopropyl)methyl)-[1,2,4]triazolo[4,3-b]pyridazin-7-amine]	28 nM
COc1cccc(F)c1C1CC1CNc1cnn2c(CC(F)(F)F)nnc2c1Cl (centres unmarked) [Example 40, 8-Chloro-N-((2-(2-fluoro-6-methoxyphenyl)cyclopropyl)methyl)-3-(2,2,2-trifluoroethyl)-[1,2,4]triazolo[4,3-b]pyridazin-7-amine]	31 nM
Clc1c(N2CCC(c3ccncc3)CC2)cnn2c(CC3CC3)nnc12 [Example 41, 8-Chloro-3-(cyclopropylmethyl)-7-(4-(pyridin-4-yl)piperidin-1-yl)-[1,2,4]triazolo[4,3-b]pyridazine]	275 nM
COc1cc(OC)nc(C2CCN(c3cnn4c(CC5CC5)nnc4c3Cl)CC2)n1 [Example 42, 8-Chloro-3-(cyclopropylmethyl)-7-(4-(4,6-dimethoxypyrimidin-2-yl)piperidin-1-yl)-[1,2,4]triazolo[4,3-b]pyridazine]	11 nM
COc1cc(OC)nc(C2CCN(c3cnn4c(CC(F)(F)F)nnc4c3Cl)CC2)n1 [Example 43, 8-Chloro-7-(4-(4,6-dimethoxypyrimidin-2-yl)piperidin-1-yl)-3-(2,2,2-trifluoroethyl)-[1,2,4]triazolo[4,3-b]pyridazine]	10 nM
Clc1ccccc1C1CCN(c2cnn3c(CC4CC4)nnc3c2Cl)CC1 [Example 44, 8-Chloro-7-(4-(2-chlorophenyl)piperidin-1-yl)-3-(cyclopropylmethyl)-[1,2,4]triazolo[4,3-b]pyridazine]	45 nM
FC(F)(F)Cc1nnc2c(Cl)c(N3CCC(c4ccccc4Cl)CC3)cnn12 [Example 45, 8-Chloro-7-(4-(2-chlorophenyl)piperidin-1-yl)-3-(2,2,2-trifluoroethyl)-[1,2,4]triazolo[4,3-b]pyridazine]	48 nM
